Here are results for 80 molecules from the supplement of paper PMC8837787.

Structures are written as SMILES. A value given as a limit tells only on which side of the number the result lay.

The assay deals with Saccharomyces cerevisiae ABC16-Green Monster. The experiment in a line: growth inhibition at single dose (up to 150 µM), below the 70% cut-off for dose-response; higher = more potent. Conditions: 18 h; 30 °C; YPD. In a few lines: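 Values are percent growth inhibition of drug-sensitive S. cerevisiae ABC16-Green Monster cells. Cells grown overnight in YPD at 30 °C were diluted to log phase (OD600 0.1–0.2), and each library compound was added at a single dose of 150 µM to 200 µl culture per well in 96-well plates, in biological duplicates, beside untreated cultures. OD600 was read at 0 h and after 18 h at 30 °C, and compounds under 70% in both replicates were not taken to dose-response.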

Regarding `COc1ccccc1-c1noc(-c2cc3c(s2)CCCCC3)n1`, the “growth inhibition at single dose” value was < 70%.

Consider `COc1ccc2nc(C)cc(Nc3ccc(Cl)cc3)c2c1`, for which the “growth inhibition at single dose” value is < 70%.

In the case of `c1ccc(Cn2c(N=Nc3c(Nc4ccccc4)ccc4ccccc34)nc3ccccc32)cc1`, the “growth inhibition at single dose” value is < 70%.

As to `Cc1cccn2c(=O)cc(CN3C(=O)NC(C)(c4ccc(F)cc4)C3=O)nc12` (stereo not given), the “growth inhibition at single dose” value is < 70%.

Consider `c1ccc2cc(OCCNc3ncnc4sccc34)ccc2c1`, for which the “growth inhibition at single dose” value is < 70%.

In the case of `CC(=O)NCCCc1ccc(C(=O)COC(=O)c2ccccc2-n2cnnn2)cc1`, the “growth inhibition at single dose” value was < 70%.

For `O=C(NCC1Cc2cccc(-c3ccncc3)c2O1)c1csc2c1CCCC2` (stereo not given), the “growth inhibition at single dose” value is < 70%.

For the molecule `C[C@H]1c2cccc(O)c2C(=O)C2=C(O)[C@]3(O)C(=O)C(C(N)=O)=C(O)[C@@H](N(C)C)[C@@H]3[C@@H](O)[C@@H]21`, the “growth inhibition at single dose” value was < 70%.

With `CN(CC(=O)NC1CC1)C(=O)CNc1ccccc1Oc1ccccc1`, the “growth inhibition at single dose” value was < 70%.

Consider `COc1ccccc1N1CCN(C(CNS(=O)(=O)c2ccc(Cl)cc2)c2cccnc2)CC1` (stereo not given), for which the “growth inhibition at single dose” value was < 70%.

Take `CO[C@H]1/C=C/O[C@@]2(C)Oc3c(C)c(O)c4c(O)c(/c(=C/NN5CCN(C)CC5)c(O)c4c3C2=O)=N\C(=O)/C(C)=C\C=C/[C@H](C)[C@H](O)[C@@H](C)[C@@H](O)[C@@H](C)[C@H](OC(C)=O)[C@@H]1C`: the “growth inhibition at single dose” value is < 70%.

With `CCc1ccc(C(NCc2nc(N)nc(N(C)C)n2)C(C)C)cc1` (stereo not given), the “growth inhibition at single dose” value was < 70%.

Regarding `CCN(CC)S(=O)(=O)c1ccc(C(C)NC(=O)c2nn(CC)c(=O)c3ccccc23)cc1` (stereo not given), the “growth inhibition at single dose” value is < 70%.

As for `Nc1nc(N)c2c3c(sc2n1)CN(Cc1ccccc1)CC3`, the “growth inhibition at single dose” value was < 70%.

Regarding `CC(C)c1nc2cc(NC(=O)CSc3nnnn3C3CC3)ccc2o1`, the “growth inhibition at single dose” value was < 70%.

In the case of `Cc1ccc2cc(C3NC(=O)c4ccccc4N3)c(Cl)nc2c1` (stereo not given), the “growth inhibition at single dose” value is < 70%.

With `O=C1N=C(Nc2cccnc2)S/C1=C/c1ccc2ncccc2c1`, the “growth inhibition at single dose” value was < 70%.

Turning to `Cc1nn2c(O)c3c(nc2c1-c1ccc(F)cc1)CCCC3`, the “growth inhibition at single dose” value is < 70%.

As to `Cn1cc(/C=C/C(=O)Nc2ncc(Cc3ccccc3)s2)cn1`, the “growth inhibition at single dose” value is < 70%.

Regarding `O=C1COCc2ccc(Br)cc2N1Cc1ccc(C(F)(F)F)cc1`, the “growth inhibition at single dose” value is < 70%.

For the molecule `O=C1O[C@@H](CO)CN1c1cc(F)c(C2=CCN(Cc3ccccc3)CC2)c(F)c1`, the “growth inhibition at single dose” value is < 70%.

`COc1ccc(N(CCc2cccc(C)n2)C(C)=O)cc1`: the “growth inhibition at single dose” value was < 70%.

Consider `CN1c2ccccc2N(C)C1c1ccc2c(c1)OCO2`, for which the “growth inhibition at single dose” value was < 70%.

`FC(F)(F)c1cnc(Sc2nnc(-c3ccncc3)o2)c(Cl)c1`: the “growth inhibition at single dose” value was < 70%.

For the molecule `CC(O)(c1ccc(Cl)cc1)C(CN1CCCCC1)c1ccccc1` (stereo not given), the “growth inhibition at single dose” value is < 70%.

On to `Cc1ccc2nc(Cl)c(CNCc3cccs3)cc2c1`, for which the “growth inhibition at single dose” value was < 70%.

In the case of `Cc1cc(C)n(-c2ccc(NC(=O)C3(c4ccccc4)CC3)cn2)n1`, the “growth inhibition at single dose” value was < 70%.

Turning to `COc1cc(OC)cc(N2C(=O)N(Cc3ccc(C(C)(C)C)cc3)c3ccccc3S2(=O)=O)c1`, the “growth inhibition at single dose” value was < 70%.

Take `Cc1ccc2[nH]c3c(NCCN(C)C)ncnc3c2c1`: the “growth inhibition at single dose” value is < 70%.

On to `CCOc1ccc(CN(C)CC(=O)NCCc2ccc(S(N)(=O)=O)cc2)cc1`, for which the “growth inhibition at single dose” value was < 70%.

Regarding `CCOC(=O)C1(Cc2ccccc2)CCN(Cc2cccc(OC)c2O)CC1`, the “growth inhibition at single dose” value is < 70%.

Regarding `Cc1cc(OCC(=O)Nc2ccc(C(C)C)cc2)n(C)c(=O)c1C#N`, the “growth inhibition at single dose” value is < 70%.

As for `CCOC(=O)c1cc(-c2csc(Nc3c(C)cc(C)cc3C)n2)on1`, the “growth inhibition at single dose” value is < 70%.

Turning to `CC(C)(C)NS(=O)(=O)c1cccc2c(N)cccc12`, the “growth inhibition at single dose” value was < 70%.

As for `COc1ccc2c(c1)OC(O)(C(F)(F)C(F)(F)F)CC2=O` (stereo not given), the “growth inhibition at single dose” value was < 70%.

As for `Cc1cc(Cl)ccc1NC(=O)CCc1ccc(S(=O)(=O)NCC(C)C)cc1`, the “growth inhibition at single dose” value was < 70%.

For the molecule `O=C(Nc1ccc(Oc2ccc3ccccc3c2)cc1)c1ccccc1`, the “growth inhibition at single dose” value was < 70%.

As for `O=C(Nc1ccc(-c2nc3ccccc3[nH]2)cc1)c1ccc(Cl)c(Cl)c1`, the “growth inhibition at single dose” value is < 70%.

Take `COc1ccc(-c2csc(N/C=C3/C(=O)NC(=O)c4ccccc43)n2)cc1OC`: the “growth inhibition at single dose” value was < 70%.

For the molecule `CC(=O)Nc1nnc(SCc2c(C)cc(C(C)(C)C)cc2C)s1`, the “growth inhibition at single dose” value is < 70%.

For the molecule `CC1=Nc2ccc(Cl)cc2C(O)(c2ccc(C)cc2)N1CCN1CCCCC1` (stereo not given), the “growth inhibition at single dose” value was < 70%.

`CC1CN(C(=O)c2ccc(S(=O)(=O)Nc3ccccc3F)cc2)CC(C)O1` (stereo not given): the “growth inhibition at single dose” value is < 70%.

For `O=S(=O)(NC1CCN(c2nn3cc(-c4ccccc4)nc3s2)CC1)c1cccs1`, the “growth inhibition at single dose” value was < 70%.

With `C=CCn1c(SCc2c(C)noc2C)nc2scc(C3CC3)c2c1=O`, the “growth inhibition at single dose” value is < 70%.

For the molecule `COc1ccc(CCN2CCC(NCc3cccc(N(C)C)c3)CC2)cc1`, the “growth inhibition at single dose” value is < 70%.

For the molecule `CC(C)(C)c1cc(NC(=O)COc2ccc3[nH]c4ccccc4c(=O)c3c2)n(-c2ccccc2)n1`, the “growth inhibition at single dose” value was < 70%.

In the case of `COc1ccc(CNC(=O)c2cc3c(=O)n4ccccc4nc3n(CCc3ccccc3)c2=N)cc1`, the “growth inhibition at single dose” value was < 70%.

Consider `O=C(NCCc1c[nH]c2ccccc12)c1cc2ccccc2oc1=O`, for which the “growth inhibition at single dose” value is < 70%.

Turning to `CN(C)c1cc(CNC(=O)c2cc3c(F)cccc3s2)ccn1`, the “growth inhibition at single dose” value is < 70%.

For `CNc1snc(C)c1C(=O)OCc1csc(-c2ccccc2)n1`, the “growth inhibition at single dose” value is < 70%.

On to `COc1cccc(-c2cc3c(Nc4cccnc4)nccc3[nH]2)c1`, for which the “growth inhibition at single dose” value is < 70%.

`O=C(OCc1ccccc1)N1CCC(c2cc(-c3ccncc3)c(-c3ccc(F)cc3)[nH]2)CC1`: the “growth inhibition at single dose” value was < 70%.

In the case of `Cc1ccc(CSCc2ccc(C(=O)NC3CC3)o2)cc1`, the “growth inhibition at single dose” value is < 70%.

Take `N#Cc1nc(Cc2cccc3ccccc23)oc1N1CCN(C(c2ccccc2)c2ccccc2)CC1`: the “growth inhibition at single dose” value was < 70%.

As for `CC(=O)NC(C)CCc1ccc(-c2csc(-c3ccc(NC(=O)C4CC4)cc3)n2)cc1` (stereo not given), the “growth inhibition at single dose” value is < 70%.

For the molecule `C[C@H](C(N)=O)N1CCCC[C@@H]1c1ccc(OCc2cccc(F)c2)cc1`, the “growth inhibition at single dose” value was < 70%.

For `Cc1ccc(/C(C#N)=C/c2ccc(N(C)C)cc2)cc1`, the “growth inhibition at single dose” value was < 70%.

Take `COc1ccc2c(=O)c(C(=O)N(C)Cc3ccc(F)c(F)c3)c[nH]c2c1`: the “growth inhibition at single dose” value is < 70%.

As for `Cc1ccc(NC(=O)c2cc3c(s2)CCCCCC3)nc1`, the “growth inhibition at single dose” value was < 70%.

Turning to `CC1S/C(=C\c2nc3ccccc3s2)NC1=O` (stereo not given), the “growth inhibition at single dose” value was < 70%.

Turning to `OC(c1cn2cc(-c3ccc(F)cc3)nc2s1)(C(F)(F)F)C(F)(F)F`, the “growth inhibition at single dose” value is < 70%.

With `Fc1ccccc1-n1cnnc1SC(c1ccccc1)c1ccccc1`, the “growth inhibition at single dose” value is < 70%.

For `Cc1cc(NC(=O)C(C)(C)C)sc1C(=O)Nc1ccccc1O`, the “growth inhibition at single dose” value was < 70%.

`Cc1nc2ccccc2c(O)c1CC=C(Cl)Cl`: the “growth inhibition at single dose” value was < 70%.

Consider `COc1cccc(C=Cc2nc(=O)c3ccccc3o2)c1OC`, for which the “growth inhibition at single dose” value is < 70%.

On to `COc1ccnc(Nc2ccc3c(c2)nc2n3CCCCC2)n1`, for which the “growth inhibition at single dose” value was < 70%.

As for `CC(C)c1cc(C(=O)Nc2nnc3ccccn23)c2cnn(C(C)C)c2n1`, the “growth inhibition at single dose” value was < 70%.

For `CC[n+]1ccccc1/C=C/c1ccc(N(C)C)cc1`, the “growth inhibition at single dose” value was < 70%.

Turning to `CC(=O)O[C@H]1CC[C@]2(C)C3CC[C@]4(C)C(C5=CC(=O)OC5)CC[C@]4(O)C3CC[C@@H]2C1` (stereo not given in full), the “growth inhibition at single dose” value was < 70%.

Take `Cc1nn(-c2ccccc2)c(C)c1-c1nc(-c2ccccc2)no1`: the “growth inhibition at single dose” value is < 70%.

Regarding `O=C(CCC1CCCCC1)Nc1cccc(-c2nnc(-c3ccco3)o2)c1`, the “growth inhibition at single dose” value was < 70%.

On to `CCN(CC)CCn1c(NC(=O)c2cnc3c(cnn3C(C)C)c2)nc2ccccc21`, for which the “growth inhibition at single dose” value was < 70%.

`CCOc1ccccc1NC(=O)CN1CCN(C(=O)c2ccco2)CC1`: the “growth inhibition at single dose” value is < 70%.

As to `C=C(C)COc1ccc(-c2onc(C)c2-c2ccc(OC)c(OC)c2)c(O)c1`, the “growth inhibition at single dose” value was < 70%.

Turning to `CCCn1c(=O)n(CC(=O)Nc2ccc(C)c(C)c2)c(=O)c2c1nc(C(F)(F)F)n2CCOC`, the “growth inhibition at single dose” value is < 70%.

For `Clc1cc2c(c3ncccc13)OCN(Cc1ccco1)C2`, the “growth inhibition at single dose” value was < 70%.

Regarding `Nc1ccc(-c2nc3cc(Oc4ccc(Oc5ccc6[nH]c(-c7ccc(N)cc7)nc6c5)cc4)ccc3[nH]2)cc1`, the “growth inhibition at single dose” value was < 70%.

Regarding `O=C(CN1CCN(C(=O)/C=C/c2sc3ccccc3c2Cl)CC1)NC1CC1`, the “growth inhibition at single dose” value is < 70%.

On to `Cc1cccc(NC(=O)CN2C(=O)/C(=C(/C#N)c3nc4ccccc4[nH]3)c3ccccc32)c1`, for which the “growth inhibition at single dose” value is < 70%.

As to `Cc1cc(NC(=O)c2ccc(S(=O)(=O)N(Cc3ccccc3)C(C)C)cc2)no1`, the “growth inhibition at single dose” value is < 70%.
